The values below come from article PMC12766724, “Synthesis, Anthelmintic Activity, and Mechanism of Action of 5‑Aryl‑1H‑indoles” (Journal of Agricultural and Food Chemistry, 2025).

Molecules are shown by their SMILES.

Data set [1] deals with C. elegans ZZ15 lev-8(x15) X. Kind of data set: Chitinase assay (reproductive capacity). Conditions: Caenorhabditis elegans; levamisole-resistant strain. Type of data set: in vivo.
The subject of data set [2] is C. elegans CB3474 ben-1(e1880) III. Kind of data set: Chitinase assay (reproductive capacity). It counts as in vivo. Conditions: Caenorhabditis elegans; mebendazole-resistant strain.
Data set [3] concerns C. elegans DA1316 avr-14(ad1305) I; avr-15(vu227) glc-1(pk54) V. Nature of the data set: Chitinase assay (reproductive capacity). Type of data set: in vivo. Conditions: Caenorhabditis elegans; ivermectin-resistant strain.
In data set [4] the test system is C. elegans CB211 lev-1(e211) IV. Nature of the data set: Chitinase assay (reproductive capacity). It counts as in vivo. Conditions: Caenorhabditis elegans; levamisole-resistant strain.
Data set [5] concerns Heterodera schachtii second-stage juveniles (J2). Nature of the data set: Motility on WMicrotracker ONE. It counts as in vivo. The procedure, abridged: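 Second-stage juveniles of H. schachtii, reared on in vitro mustard roots on modified KNOP medium, were exposed to compounds in microtiter wells. Motility was scored as activity counts, i.e. interruptions of infrared microbeams passing through each well.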

A further data set deals with C. elegans N2 wild-type. Nature of the data set: Chitinase assay (reproductive capacity). It counts as in vivo, Caenorhabditis elegans. Conditions: Caenorhabditis elegans. In a few lines: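 Wild-type N2 L1 larvae were exposed to compounds for 4 days, then populations were examined microscopically and Chitinase activity, released at hatching, was measured as a read-out of reproduction. Failure from acute or reproductive toxicity or developmental defects is detected.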

Another data set concerns H. schachtii. Kind of data set: DESI-MS detection of compound in nematodes. The arrangement: species or system Heterodera schachtii. Here is the method: (§1) For in situ visualization of selected compounds, desorption electrospray ionization mass spectrometry imaging (DESI-MSI) was performed by using a Synapt G2-Si MS instrument coupled to a 2D-DESI source (Waters). The spray solvent (95% MeOH with 0.1% ammonia) was delivered at 2 μL/min and nebulized with […] ultrapure nitrogen on sample slides. The DESI source was optimized as follows: tip-to-surface distance: 1 mm; tip-to-inlet distance: 5 mm; incidence angle: 55°; collection angle: 10°; capillary voltage: 4 kV; cone voltage: […]; mass range: 100–600, with 16 000–17 000 full width at half-maximum (fwhm) mass resolution. Data were acquired in the negative mode using MassLynx software (v4.1, Waters, Milford, MA). Spectra, with a spatial resolution of 30 μm, were acquired every second. All acquired spectra were then recalibrated with the exact mass of the standard compounds and normalized based on root mean square (RMS) intensities. […] DESI-MS/MS was performed on the same sampling area with a 20 eV collision energy scanning of nematodes, and the acquired MS/MS spectra were summarized for the fragmentation ion assignment, and the correct molecular formulas were first calculated using MassLynx software (v4.1) and then identified by their masses acquired from the standard solution. […]

The test system of the next data set is C. elegans. Kind of data set: DESI-MS detection of compound in nematodes. The arrangement: species or system Caenorhabditis elegans. Here is the method:
as §1

Data set [6] has as its system H. schachtii second-stage juveniles (J2). Kind of data set: Nematicidal assay with NaOH agitation. It counts as in vivo, Heterodera schachtii. Conditions: 50 µM; 48 h. An excerpt: To assess the nematicidal effect of compounds on H. schachtii second-stage juveniles (J2), approximately 50 J2 in sterile double-distilled water were transferred into each well of a flat-bottom 96-well plate and exposed to the test compounds or vehicle alone (DMSO 0.2%).

Data set [7] has as its system mitochondrial membrane potential of C. elegans young adults. Kind of data set: Mitochondrial membrane potential measurement. Conditions: 100 μM; 24 h. It counts as in vivo, Caenorhabditis elegans. The protocol: After 24 h, the compounds were washed away. Then, the mitochondrial membrane potential was measured using a specialized fluorescent dye (kit MAK147, Sigma-Aldrich). The kit was used according to the manufacturer’s instructions with modified incubation temperature and time (20 °C, 4 h) to account for the fact that living intact worms were used instead of cell cultures. , Dyed worms (approximately 200 per well) were distributed onto a black 96-well plate, and the fluorescence was measured using a Tecan Infinite 200 Pro plate reader.
Determining the mechanism of action of compounds is always challenging; however, the nature of their effect, as well as the structural similarity to compounds with known properties, can provide useful insights. One of our hypotheses was that the compounds might interfere with energy production. We based this assumption on the behavior of compound-treated worms (delayed development, lower fecundity, and relatively rapid decrease in motility rates but not necessarily death). Impaired mitochondrial function would be accompanied by a decrease in mitochondrial membrane potential (MMP).

The mark [8] stands for this setting: 10 µM group, initial (prior to the treatment).
Setting [9] is: 50 µM group, initial (prior to the treatment).
[10] abbreviates: 100 µM group, initial (prior to the treatment).

With `CCCOc1cccc(-c2ccc3[nH]ccc3c2)c1` [i-12], the IC50 (commonly the concentration that gives 50% inhibition) in [1] was found to be 8.03 ± 1.13 µM; in data set [2], 8.32 ± 0.74 µM; in data set [3] it was 7.59 ± 1.99 µM; in data set [4] it was 8.69 ± 1.26 µM; with C. elegans N2 wild-type, 9.6 ± 0.9 µM. For the same compound, the average activity counts in data set [5] (setting [8]) turned out to be 192; in data set [5] (10 µM, 48 h), 200; in data set [5] (10 µM, 72 h), 158; in data set [5] (setting [9]) it was 176; in data set [5] (50 µM, 48 h), 195; in data set [5] (50 µM, 72 h), 136. For the same compound, the average activity counts in data set [5] (setting [10]) stood at 195; in data set [5] (100 µM, 48 h) it was 166; in [5] (100 µM, 72 h) it was 177.

Consider `CCCOc1ccc(-c2ccc3[nH]ccc3c2)cc1` [i-13], for which the “DESI-MS signal of the compound in nematodes” value in the data set with H. schachtii and in the data set with C. elegans was “able to detect signals” in each case. Also, the IC50 in data set [1] stood at 7.63 ± 0.91 µM; in data set [2], 8.28 ± 0.99 µM; in data set [3], 8.45 ± 1.36 µM; in [4] it was 8.8 ± 1.21 µM; in the data set on C. elegans N2 wild-type, 7.09 ± 0.72 µM. Further, the average activity counts in data set [5] (setting [8]) amounted to 166; in [5] (10 µM, 48 h), 159; in [5] (10 µM, 72 h), 141; in data set [5] (setting [9]), 192; in data set [5] (50 µM, 48 h), 183; in data set [5] (50 µM, 72 h), 163. Besides, the average activity counts in [5] (setting [10]) is reported as 192; in [5] (100 µM, 48 h), 144; in data set [5] (100 µM, 72 h), 150.

Turning to `Clc1ccc(-c2ccc3[nH]ccc3c2)cc1` [i-19], the “DESI-MS signal of the compound in nematodes” value in the data set on H. schachtii and in the data set with C. elegans was “able to detect signals” each time. Moreover, the “nematicidal effect after NaOH addition” value in data set [6] is recorded as “immobilize worms rather than directly kill them”. The “MMP signal lower than in vehicle-treated control animals” value in data set [7] was “approximately 80%”. In addition, the IC50 amounted to 5.92 ± 0.39 µM in [1]; 6.61 ± 0.85 µM in data set [2]; 5.15 ± 1.01 µM in [3]; 6.8 ± 1.95 µM in [4]; 6.67 ± 0.6 µM in the data set on C. elegans N2 wild-type. The average activity counts in [5] (setting [8]) is 190; in [5] (10 µM, 48 h) it was 179; in data set [5] (10 µM, 72 h), 192; in data set [5] (setting [9]), 183; in data set [5] (50 µM, 48 h), 90; in data set [5] (50 µM, 72 h) it was 18. Besides, the average activity counts worked out at 195 in [5] (setting [10]); 121 in data set [5] (100 µM, 48 h); 30 in data set [5] (100 µM, 72 h). In data set [5] (100 µM, 72 h), the “decrease in mean activity counts” value was determined as 85%.

Consider `Fc1ccc(-c2ccc3[nH]ccc3c2)cc1` [i-20], for which the “nematicidal effect after NaOH addition” value in [6] is “immobilize worms rather than directly kill them”. Further, the IC50 in data set [1] was 11 ± 0.51 µM; in data set [2], 9.97 ± 1.06 µM; in data set [3] it was 10.4 ± 1.09 µM; in data set [4] it was 9.02 ± 0.75 µM; in the data set on C. elegans N2 wild-type, 9.05 ± 0.62 µM. In addition, the average activity counts in [5] (setting [8]) is recorded as 165; in data set [5] (10 µM, 48 h) it was 169; in [5] (10 µM, 72 h), 176; in [5] (setting [9]), 174; in [5] (50 µM, 48 h) it was 81; in data set [5] (50 µM, 72 h), 27. Moreover, the average activity counts was 180 in data set [5] (setting [10]); 4 in data set [5] (100 µM, 48 h); 5 in data set [5] (100 µM, 72 h). Also, the “decrease in mean activity counts” value in [5] (100 µM, 72 h) was found to be 97%.

Take `FC(F)(F)Oc1ccc(-c2ccc3[nH]ccc3c2)cc1` [i-21]: the concentration for half-maximal inhibition (IC50) was determined as 10.6 ± 0.48 µM in data set [1]; 9.01 ± 0.78 µM in data set [2]; 10.4 ± 0.41 µM in data set [3]; 10.1 ± 0.39 µM in [4]; 8.58 ± 0.99 µM in the data set on C. elegans N2 wild-type. Further, the average activity counts in data set [5] (setting [8]) is 175; in data set [5] (10 µM, 48 h), 170; in data set [5] (10 µM, 72 h) it was 146; in data set [5] (setting [9]), 177; in data set [5] (50 µM, 48 h), 142; in data set [5] (50 µM, 72 h) it was 102. The average activity counts came out at 187 in data set [5] (setting [10]); 150 in [5] (100 µM, 48 h); 104 in data set [5] (100 µM, 72 h).
